# Key:
# [1] = Average plasma concentration of erlotinib co-administered with MM-121; assay type: in vivo, human; conditions: for Erlotinib Avg Conc.: plasma
# Excerpt: The ability of the anti-ErbB3 agent to alter the pharmacokinetics of a co-administered AAGB or TKI can be evaluated by measuring serum drug levels and calculating pharmacokinetic parameters. Pharmacokinetic parameters referred to herein (e.g., Example 1) describe the in vivo characteristics of a drug over time. These include plasma concentration (C), as well as Cmax, Tmax, and AUC. The term “Cmax” refers to the measured plasma concentration of the active agent at the point of maximum, or peak, concentration following an administration. The term “Tmax” refers to the time from drug administration until Cmax is reached. The term “AUC” refers to the area under the curve of a graph of the measured plasma concentration of an active agent vs. time, measured from one time point to another time point. For example AUC0-t is the area under the curve of plasma concentration versus time from time 0 to time t, where time 0 is the time of initial administration of the drug. Time t can be the last time point with measurable plasma concentration for an individual drug.
# Patients also received one of two different doses of erlotinib (either 100 mg or 150 mg) administered daily orally. The antibody administration began on Day 1 and continued with weekly doses and the erlotinib administration began on Day 2 and continued with daily doses. Pharmacokinetic parameters were monitored for the duration of treatment, until the patient's cancer progressed or the patient came off the study.
# For the erlotinib, the average plasma concentration was measured.
# [2] = test system: alpha 1-acid glycoprotein (AAG); conditions: reported; cited from earlier work
# plasma protein = conditions: TKIs in clinical use; cited from earlier work
smiles,measurement,setting,value
"C#Cc1cccc(Nc2ncnc3cc(OCCOC)c(OCCOC)cc23)c1 [Erlotinib, erlotinib]",higher average plasma concentration of erlotinib,"[1]; Patient 5 (12 mg/kg MM-121) vs Patient 2 (6 mg/kg MM-121), each 150 mg erlotinib",approximately 2.19 fold
same,higher average plasma concentration of erlotinib,"[1]; Patient 8 (12 mg/kg MM-121) vs Patient 1 (6 mg/kg MM-121), each 100 mg erlotinib",approximately 2.02 fold
same,Erlotinib Avg Conc.,"[1]; Subject 1, erlotinib 100 mg daily oral + MM-121 6 mg/kg weekly i.v.",384 ng/mL
same,Erlotinib Avg Conc.,"[1]; Subject 2, erlotinib 150 mg daily oral + MM-121 6 mg/kg weekly i.v.",624 ng/mL
same,Erlotinib Avg Conc.,"[1]; Subject 3, erlotinib 150 mg daily oral + MM-121 6 mg/kg weekly i.v.",569 ng/mL
same,Erlotinib Avg Conc.,"[1]; Subject 4, erlotinib 150 mg daily oral + MM-121 6 mg/kg weekly i.v.",656 ng/mL
same,Erlotinib Avg Conc.,"[1]; Subject 5, erlotinib 150 mg daily oral + MM-121 12 mg/kg weekly i.v.",1370 ng/mL
same,Erlotinib Avg Conc.,"[1]; Subject 6, erlotinib 150 mg daily oral + MM-121 12 mg/kg weekly i.v.",1165.3 ng/mL
same,Erlotinib Avg Conc.,"[1]; Subject 7, erlotinib 100 mg daily oral + MM-121 12 mg/kg weekly i.v.",2395.6 ng/mL
same,Erlotinib Avg Conc.,"[1]; Subject 8, erlotinib 100 mg daily oral + MM-121 12 mg/kg weekly i.v.",777.5894 ng/mL
same,higher average plasma concentration of erlotinib,[1]; patients treated with 12 mg/kg anti-ErbB3 antibody compared to patients treated with 6 mg/kg,2-3 fold
same,binding to AAG that can alter bioavailability,[2],significant binding
same,plasma protein binding,plasma protein,high
CN(C)C/C=C/C(=O)Nc1cc2c(Nc3ccc(F)c(Cl)c3)ncnc2cc1O[C@H]1CCOC1 [afatinib],plasma protein binding,plasma protein,high
Cc1nc(Nc2ncc(C(=O)Nc3c(C)cccc3Cl)s2)cc(N2CCN(CCO)CC2)n1 [dasatinib],plasma protein binding,plasma protein,high
COc1cc2ncnc(Nc3ccc(F)c(Cl)c3)c2cc1OCCCN1CCOCC1 [gefitinib],binding to AAG that can alter bioavailability,[2],significant binding
same,plasma protein binding,plasma protein,high
Cc1ccc(NC(=O)c2ccc(CN3CCN(C)CC3)cc2)cc1Nc1nccc(-c2cccnc2)n1 [imatinib],binding to AAG that can alter bioavailability,[2],significant binding
CS(=O)(=O)CCNCc1ccc(-c2ccc3ncnc(Nc4ccc(OCc5cccc(F)c5)c(Cl)c4)c3c2)o1 [lapatinib],binding to AAG that can alter bioavailability,[2],significant binding
same,plasma protein binding,plasma protein,high
Cc1cn(-c2cc(NC(=O)c3ccc(C)c(Nc4nccc(-c5cccnc5)n4)c3)cc(C(F)(F)F)c2)cn1 [nilotinib],plasma protein binding,plasma protein,high
Cc1ccc(Nc2nccc(N(C)c3ccc4c(C)n(C)nc4c3)n2)cc1S(N)(=O)=O [pazopinib],plasma protein binding,plasma protein,high
CNC(=O)c1cc(Oc2ccc(NC(=O)Nc3ccc(Cl)c(C(F)(F)F)c3)cc2)ccn1 [sorafenib],plasma protein binding,plasma protein,high
CCN(CC)CCNC(=O)c1c(C)[nH]c(/C=C2\C(=O)Nc3ccc(F)cc32)c1C [sunitinib],plasma protein binding,plasma protein,high
